This experiment has as its system CEM cells HIV-1 protection, formazan growth assay. The experiment is described as follows: NCI AIDS Antiviral Assay. The following applies: for IC50: measured here: growth of uninfected CEM cells. As to the method: The ability of compounds to protect human CEM cells from HIV-1 infection is measured as a screen for new compounds capable of inhibiting the HIV virus. Five concentrations of drug were tested on uninfected and infected cells and cell growth was measured using a soluble formazan assay. […] Compounds that provided at least 50% protection were retested. Compounds that provided at least 50% protection on retest were listed as moderately active. Compounds that reproducibly provided 100% protection were listed as confirmed active. […] Note that the inability to provide protection could be due to toxicity.

Our source for the EC50, IC50 and outcome values is PubChem BioAssay AID179 (DTP/NCI, 2004).

The source made the active and inactive calls.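 How the source made its calls: active means compounds giving half or more protection of infected cells from virus-caused growth loss, again on retest; inactive means the rest.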 Where only a bound is given, the exact number is not on record here.

Take `O=[N+]([O-])O.[Ga]`: the EC50 is over 100 µM and the IC50 is over 100 µM. For `Cc1ccc(S(=O)(=O)N2CCSCCSCCSCCSCC2)cc1`, the EC50 was over 12 µM and the IC50 is over 12 µM. As for `NC1CC2NC3CCCCC3NC2CC1N` (stereo not drawn), the EC50 was over 200 µM and the IC50 worked out at 27.5 µM. As for `CCOC(=O)C1/C(=N/N)CN2CCc3c([nH]c4ccccc34)C12C(=O)OCC` (stereo not drawn), the EC50 was over 158 µM and the IC50 stood at 145 µM.

`Cc1cc(=O)c(C#N)c2c(C#N)c(N)[nH]n12`: the EC50 is over 200 µM and the IC50 was over 200 µM. For the compound `O=C(CN1CCOCC1)c1ccc2[nH]c(=O)oc2c1`, the EC50 was over 200 µM and the IC50 stood at 155 µM. The matching figures for `O=C(NC1C=Nc2ccccc2NC1=O)c1ccc(Cl)cc1` (stereo not drawn): over 200 µM and over 200 µM. The like results for `CCOP(=O)(OCC)/C(C#N)=C/c1ccc(Oc2ccccc2)cc1` were, in that order, over 20.4 µM and over 20.4 µM. Take `CN1CC[C@@H](O)[C@@H](CNC23CC4CC(CC(C4)C2)C3)C1`: the result was inactive. `N#CSCC(Cl)=CCl` (mixture of isomers): the EC50 was over 200 µM and the IC50 is 49 µM.

For `COC(=O)C(C(=O)C(=O)Nc1nc2ccc([N+](=O)[O-])cc2s1)c1nc2ccc(Cl)cc2[nH]c1=O` (stereo not drawn), the EC50 is over 51.3 µM and the IC50 was over 51.3 µM. Turning to `NC(CCSS(=O)(=O)O)=NCC(c1ccccc1)c1ccccc1`, the EC50 was over 123 µM and the IC50 turned out to be 20 µM.

Turning to `CC12CC3(C)SC(C)(CC(C)(S1)S2)S3`, the result was inactive.

Take `C#CCN(C(=O)C(F)(F)F)C(/C=C\C(=O)OC)(C(=O)OCC)C(=O)OCC`: the EC50 is over 200 µM and the IC50 was 83.2 µM. As to `C/C=C1\C=C(OC)CN(CCc2c[nH]c3ccccc23)C1`, the EC50 was over 158 µM and the IC50 was 50.1 µM. In the case of `CC(C)C1CN(C(=O)OCc2ccccc2)C2N1C(=O)C2(C)OCc1ccccc1` (stereo not drawn), the EC50 is over 251 µM and the IC50 was determined as 97.7 µM. The matching figures for `N/N=C1\CCCc2c1no[n+]2[O-]`: over 200 µM and over 200 µM. On to `C=C(COC(=O)CC1(CC(=O)O)CCCC1)[C@@H]1CC[C@]2(COC(=O)CC3(CC(=O)O)CCCC3)CC[C@]3(C)[C@H](CC[C@@H]4[C@@]5(C)CC[C@H](OC(=O)CC6(CC(=O)O)CCCC6)C(C)(C)[C@@H]5CC[C@]43C)[C@@H]12`, for which the EC50 is over 200 µM and the IC50 came out at 8.71 µM. The matching figures for `CN(C)CCCCC1c2ccccc2Sc2ccccc21`: over 200 µM and 8.71 µM.

`NC(N)=NS(=O)(=O)c1ccc(Nc2c3ccccc3nc3c(C(=O)Nc4ccc(S(N)(=O)=O)cc4)ccc(Cl)c23)cc1`: the EC50 is over 41.7 µM and the IC50 is over 41.7 µM. Regarding `CCOC(=O)/C(C#N)=C/Nc1c(C)n(C)n(-c2ccccc2)c1=O`, the EC50 is over 200 µM and the IC50 is over 200 µM.

For `O=S1C=C(C2=COCCC2)OC1` (stereo not drawn), the EC50 was over 195 µM and the IC50 was over 195 µM.

`CC(=O)N1OC2(C)c3ccccc3C1(C)c1ccccc12`: the EC50 was over 25.7 µM and the IC50 was 23.4 µM. Regarding `CC(C)Oc1cc2c(c3oc(=O)c4c(c13)CCCC4)C(=O)[C@H](C)[C@@H](C)O2`, the EC50 was over 200 µM and the IC50 came out at 12.3 µM. The matching figures for `Cc1nc2[nH]ncn2c(=O)c1CCO`: over 200 µM and over 200 µM. The like results for `CC1=COC(=O)c2ccccc2N1` were, in that order, over 537 µM and 141 µM. For the compound `O=c1[nH]c(C2CCCCC2)nc2ccc(Cl)cc12`, the outcome was inactive. On to `N#C/C(=C\c1ccc(F)cc1)C(=O)c1ccccc1`, for which the EC50 was over 70.8 µM.

As for `C#CCCCCC#Cc1ccccc1C(=O)C=[N+]=[N-]`, the EC50 is over 110 µM and the IC50 stood at 91.2 µM. Regarding `O=C1CN(CCCO)CC(=O)N2Cc3ccccc3CN12`, the EC50 was over 200 µM and the IC50 was over 200 µM. As to `CCN(CC)CCN(C(=O)C(C)(C)C)c1ccccc1N`, the EC50 is over 200 µM and the IC50 was over 200 µM. Take `COc1ccc(S(=O)c2ccc(OC)cc2)cc1`: the EC50 is over 955 µM and the IC50 was 490 µM. With `S=c1n(-c2ccc(Cl)cc2)c2nc3ccccc3nc(/c2=N\Nc2cc(Cl)ccc2Cl)n1-c1ccc(Br)cc1`, the EC50 was over 75.9 µM and the IC50 is 19.5 µM. The like results for `NC(=S)N/N=C(\C(=O)Nc1cccc([N+](=O)[O-])c1)c1nc2ccc([N+](=O)[O-])cc2[nH]c1=O` were, in that order, over 288 µM and 95.5 µM. The like results for `Nc1nc(N)nc(Nc2ccc([As](=O)(O)O)cc2)n1` were, in that order, over 21.9 µM and over 21.9 µM. `CCS1=C(C(C)=O)C(=O)O[C@H](C)C1` (stereo partly drawn): the EC50 is over 1230 µM and the IC50 was over 1230 µM. `O=C(NC1CCN(Cc2ccccc2)CC1)c1ccc(I)cc1`: the EC50 is over 200 µM and the IC50 stood at 15.8 µM. For `COC12OCCN(C)C1=CC(=O)C1N=NCC12` (stereo not drawn), the outcome was inactive.

For the compound `N#C/C1=C(\C#N)CCC2(C#N)C3C=CC(O3)C2(C#N)CC1` (stereo not drawn), the EC50 is over 295 µM and the IC50 was determined as 34.7 µM.

Turning to `COc1cc([C@@H]2OC(=O)C3C2C(=O)O[C@H]3c2ccc(O)c(OC)c2)ccc1O` (stereo partly drawn), the outcome was inactive. Take `O=C1CC2(Cl)CN3c4ccccc4C(=O)CC3(Cl)CN2c2ccccc21` (stereo not drawn): the EC50 is over 57.5 µM and the IC50 is over 57.5 µM. On to `Cn1cc(N)cc1C(=O)Nc1cc(C(=O)Nc2ccc(S(=O)(=O)O)c3cc(S(=O)(=O)O)ccc23)n(C)c1`, for which the EC50 is 31.6 µM and the IC50 worked out at 324 µM. Regarding `CC1CCCC2(O1)OC1CC(=O)OC1C1=C2C(=O)c2ccccc2C1=O` (stereo not drawn), the EC50 is over 87.1 µM and the IC50 stood at 0.417 µM. Take `COc1c2c(cc3c1C(=O)c1c(O)cccc1C3=O)CC(O)CC2` (stereo not drawn): the EC50 is over 200 µM and the IC50 was over 200 µM. Turning to `O=C(O)c1cc(N=Nc2ccc(CCc3ccc(N=Nc4cc(C(=O)O)c(O)c5ccccc45)cc3S(=O)(=O)O)c(S(=O)(=O)O)c2)c2ccccc2c1O`, the EC50 was over 12.6 µM and the IC50 is over 12.6 µM. For `CC(=O)C12C[C@](C#N)(N3CCCCCC3)C1C=Cc1ccccc12` (stereo partly drawn), the EC50 was over 200 µM and the IC50 was over 200 µM. Regarding `CCOC(OC1=C(C#N)CCCC1)C(CC)[Se]c1ccccc1[N+](=O)[O-]` (stereo not drawn), the EC50 is over 23.4 µM and the IC50 is over 23.4 µM. Consider `Cc1cc(=O)oc2cc(O/C(=C\c3ccccc3)c3nc4ccccc4c(=O)o3)ccc12`, for which the outcome was inactive. Consider `CSc1nc2[nH]ccc2c(=O)[nH]1`, for which the result was inactive. With `O=C(c1ccccc1)C(O)(CC(c1ccccc1)[P+](c1ccccc1)(c1ccccc1)c1ccccc1)c1ccccc1` (stereo not drawn), the EC50 is over 200 µM and the IC50 was determined as 1.17 µM.

Regarding `NNc1nc(Nc2ccccc2)nc(Nc2ccccc2)n1`, the EC50 is over 200 µM and the IC50 came to 38 µM. The matching figures for `CC1CN=C(NS(=O)(=O)c2cc(C(=O)Nc3ccc(Cl)cc3)c(Cl)cc2S)NN1` (stereo not drawn): over 200 µM and 14.8 µM. Consider `Fc1cccc2c(SCc3ccc(Cl)cc3Cl)cnnc12`, for which the EC50 is over 15.5 µM and the IC50 was over 15.5 µM.

As usually defined, the EC50 is the concentration giving half of the maximal effect. The IC50 is the concentration at which inhibition is half-maximal. Read a low IC50 as greater potency.
